# Laboratory results from patent publication US12485140B2, “Transmission prevention of viruses with application of antiseptic composition” (Solventum Intellectual Properties Company, priority 2019, dated 2025).
# Assays:
# [1] = tested on: SARS-CoV-2 virus; test: In vitro viricidal assay against SARS-CoV-2 (CCID50 end-point titer on Vero 76 cells); settings: 22 ± 2° C.; for Log Reduction Value (LRV): compared to the virus control; for Virus Titer: mean of 3 replicates
# [2] = tested on: Vero 76 cells; settings: African green monkey
smiles,measurement,setting,value
"CCO [CE19, Ethanol]",Log Reduction Value (LRV),[1]; incubation time 0.5 min,2.4
same,Virus Titer,[1]; incubation time 0.5 min,<1.7 Log10 CCID50 of virus per mL
same,Log Reduction Value (LRV),[1]; incubation time 1 min,2.1
same,Virus Titer,[1]; incubation time 1 min,<1.7 Log10 CCID50 of virus per mL
same,Log Reduction Value (LRV),[1]; incubation time 2 min,2.3
same,Virus Titer,[1]; incubation time 2 min,<1.7 Log10 CCID50 of virus per mL
same,dilutions of the neutralized sample showing toxicity toward Vero 76 cells,[2],1/10 dilution
